Consider 8 compounds from patent US20240058422A1, “GLUCAGON-LIKE PEPTIDE-1 RECEPTOR ANTAGONISTS” (INDIANA UNIVERSITY RESEARCH AND TECHNOLOGY CORPORATION, priority 2022, published 2024).

≈ marks a conversion by molar mass, not a printed value. Starred links: 1 amine or outer side, 2 acyl side, 3 side chain; linkers in the order of their positions; H or OH if unused. Non-standard residues stand in square brackets, D forms with d. Residues, ends and D or L forms follow the SMILES beside them. Groups on a side chain read outwards from the residue. *: point of attachment. C18 diacid = O=C(O)CCCCCCCCCCCCCCCCC(=O)*; γGlu = O=C(O)[C@H](CCC(=O)[*:2])N[*:1]; Palmitoyl = CCCCCCCCCCCCCCCC(=O)*; pGlu = O=C1CC[C@@H](C(=O)O)N1; AEEA = NCCOCCOCC(=O)O; Aib = CC(C)(N)C(=O)O A value given as a limit tells only on which side of the number the result lay.

The nature of series [1]: physchem.
Series [2] can be described thus: Solubility in buffer.
The target in series [3] is T1, GLP-1R (Homo sapiens, UniProt P43220). Description: GLP-1 receptor-mediated cAMP induction, luciferase reporter gene antagonism assay. The series is classed as cell-based. Details: host or cells: HEK 293. The note with it: antagonism of 0.05 nM GLP-1, HEK 293 cells. The method in brief: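 HEK 293 cells cotransfected with human GLP-1 receptor and CRE-luciferase were serum-deprived 16 h, then given serial peptide dilutions followed by 0.05 nM GLP-1 and incubated 5 h at 37° C.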
Background: Reporter assays use an easily measured gene product as a stand-in for the process of interest.
Target sequence in this assay (P43220 24-463): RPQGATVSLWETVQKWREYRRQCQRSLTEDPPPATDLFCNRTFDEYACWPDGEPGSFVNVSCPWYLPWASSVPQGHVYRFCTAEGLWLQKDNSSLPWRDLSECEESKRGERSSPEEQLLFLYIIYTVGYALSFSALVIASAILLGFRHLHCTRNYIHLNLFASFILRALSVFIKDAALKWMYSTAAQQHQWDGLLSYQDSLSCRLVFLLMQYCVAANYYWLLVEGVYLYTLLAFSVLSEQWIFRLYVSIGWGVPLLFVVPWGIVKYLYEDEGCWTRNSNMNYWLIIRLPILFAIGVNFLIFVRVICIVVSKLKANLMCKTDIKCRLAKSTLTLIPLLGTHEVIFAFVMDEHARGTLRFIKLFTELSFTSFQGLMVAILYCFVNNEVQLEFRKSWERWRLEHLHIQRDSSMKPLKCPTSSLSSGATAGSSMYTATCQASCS

Series [4] addresses T1, GLP-1R. In words: IC50 nM. Details: host or cells: HEK 293. The note with it: read-out: IC50. Here is the method: Table printed on a drawing sheet, Fig. 10
Head of the field: IC50 nM
Where the first naming reader finds the target: description_of_the_figure: as measured in an in vitro assay using GLP-1R over-expressing 293 cells
Target sequence in this assay (P43220 24-463 limits assumed): as the sequence (P43220 24-463) above

The mark [5] stands for this setting: pH 7.7, Solubility [mg/mL] 80 mM AmBicarb pH7.7.
[6] abbreviates: Table 4, Aib variants of 9-40am Jant4 K40[C16], read-out: Bioactivity IC50.
Setting [7] is: Table 2, C16 linker variants of 9-40amide Jant4 K40[X], read-out: Biactivity IC50.
Where [8] appears, read: pH 7.7, Solubility [mg/mL] PBS pH7.7.

As a reminder, the solubility is the dissolved amount per volume that the medium holds. A high value points to much dissolved substance. As a reminder, the IC50 is the concentration that gives 50% inhibition. `CCCCCCCCCCCCCCCC(=O)NCCCC[C@H](NC(=O)[C@H](CO)NC(=O)[C@@H]1CCCN1C(=O)[C@@H]1CCCN1C(=O)[C@@H]1CCCN1C(=O)[C@H](C)NC(=O)CNC(=O)[C@H](CO)NC(=O)[C@H](CO)NC(=O)[C@@H]1CCCN1C(=O)CNC(=O)CNC(=O)[C@H](CCCCN)NC(=O)[C@@H](NC(=O)C(C)(C)NC(=O)[C@H](Cc1c[nH]c2ccccc12)NC(=O)[C@H](C)NC(=O)[C@@H](NC(=O)[C@H](Cc1ccccc1)NC(=O)[C@H](CCC(=O)O)NC(=O)[C@H](CCCNC(=N)N)NC(=O)[C@@H](NC(=O)[C@H](C)NC(=O)[C@H](CCC(N)=O)NC(=O)[C@H](CCC(=O)O)NC(=O)[C@H](CCC(=O)O)NC(=O)[C@H](CC(C)C)NC(=O)[C@H](Cc1ccc(O)cc1)NC(=O)[C@H](CO)NC(=O)[C@H](CO)NC(=O)[C@@H](NC(=O)[C@@H](N)CC(=O)O)C(C)C)C(C)C)[C@@H](C)CC)C(C)C)C(N)=O` [compound 44] (H-DVSSYLEEQAVREFIAW[Aib]VKGGPSSGAPPPSK(Palmitoyl)-NH2): the solubility in series [1] (setting [5]) amounted to 19000 µg/mL (≈ 5260 µM); in series [2] (PBS, pH 7.7, Solubility [mg/mL] PBS pH7.7, Table 4, PBS pH7.7) it was 100 µg/mL (≈ 27.7 µM). Besides, the IC50 in series [3] (setting [6]) amounted to 8 nM.

`CC[C@H](C)[C@H](NC(=O)[C@H](Cc1ccccc1)NC(=O)[C@H](CCC(=O)O)NC(=O)[C@H](CCCNC(=N)N)NC(=O)[C@@H](NC(=O)[C@H](C)NC(=O)[C@H](CCC(N)=O)NC(=O)[C@H](CCC(=O)O)NC(=O)[C@H](CCC(=O)O)NC(=O)[C@H](CC(C)C)NC(=O)[C@H](Cc1ccc(O)cc1)NC(=O)[C@H](CO)NC(=O)[C@H](CO)NC(=O)[C@@H](NC(=O)[C@H](CC(=O)O)NC(=O)[C@@H]1CCC(=O)N1)C(C)C)C(C)C)C(=O)N[C@@H](C)C(=O)N[C@@H](Cc1c[nH]c2ccccc12)C(=O)N[C@@H](CC(C)C)C(=O)N[C@H](C(=O)N[C@@H](CCCNC(=N)N)C(=O)NCC(=O)NCC(=O)N1CCC[C@H]1C(=O)N[C@@H](CO)C(=O)N[C@@H](CO)C(=O)NCC(=O)N[C@@H](C)C(=O)N1CCC[C@H]1C(=O)N1CCC[C@H]1C(=O)N1CCC[C@H]1C(=O)N[C@@H](CO)C(=O)N[C@@H](CCCCNC(=O)CCCCCCCCCCCCCCCCC(=O)O)C(=O)O)C(C)C` [compound 1418, Z DVSSYLEEQAVREFIAWLVRGGPSSGAPPPSO-acid] ([pGlu]DVSSYLEEQAVREFIAWLVRGGPSSGAPPPSK(C18 diacid)-OH): in series [4], the IC50 is 67 nM.

On to `CCCCCCCCCCCCCCCC(=O)NCCCC[C@H](NC(=O)[C@H](CO)NC(=O)[C@@H]1CCCN1C(=O)[C@@H]1CCCN1C(=O)[C@@H]1CCCN1C(=O)[C@H](C)NC(=O)CNC(=O)[C@H](CO)NC(=O)[C@H](CO)NC(=O)[C@@H]1CCCN1C(=O)CNC(=O)CNC(=O)[C@H](CCCCN)NC(=O)[C@@H](NC(=O)[C@H](CC(C)C)NC(=O)[C@H](Cc1c[nH]c2ccccc12)NC(=O)[C@H](C)NC(=O)[C@@H](NC(=O)[C@H](Cc1ccccc1)NC(=O)[C@H](CCC(=O)O)NC(=O)[C@H](CCCNC(=N)N)NC(=O)[C@@H](NC(=O)[C@H](C)NC(=O)[C@H](CCC(N)=O)NC(=O)[C@H](CCC(=O)O)NC(=O)[C@H](CCC(=O)O)NC(=O)[C@H](CC(C)C)NC(=O)[C@H](Cc1ccc(O)cc1)NC(=O)[C@H](CO)NC(=O)[C@H](CO)NC(=O)[C@@H](NC(=O)[C@@H](N)CC(=O)O)C(C)C)C(C)C)[C@@H](C)CC)C(C)C)C(N)=O` [compound 47] (H-DVSSYLEEQAVREFIAWLVKGGPSSGAPPPSK(Palmitoyl)-NH2; N-terminus assumed), for which the solubility is 6100 µg/mL (≈ 1680 µM) in series [1] (setting [5]) and 6100 µg/mL (≈ 1680 µM) in series [2] (80 mM ammonium bicarbonate buffer, pH 7.7, Solubility 80 mM AmeBicarb pH7.7, Table 3, 80 mM AmeBicarb pH7.7).

`CCCCCCCCCCCCCCCC(=O)N[C@@H](CCC(=O)NCCOCCOCC(=O)NCCOCCOCC(=O)NCCCC[C@H](NC(=O)[C@H](CO)NC(=O)[C@@H]1CCCN1C(=O)[C@@H]1CCCN1C(=O)[C@@H]1CCCN1C(=O)[C@H](C)NC(=O)CNC(=O)[C@H](CO)NC(=O)[C@H](CO)NC(=O)[C@@H]1CCCN1C(=O)CNC(=O)CNC(=O)[C@H](CCCCN)NC(=O)[C@@H](NC(=O)[C@H](CC(C)C)NC(=O)[C@H](Cc1c[nH]c2ccccc12)NC(=O)[C@H](C)NC(=O)[C@@H](NC(=O)[C@H](Cc1ccccc1)NC(=O)[C@H](CCC(=O)O)NC(=O)[C@H](CCCNC(=N)N)NC(=O)[C@@H](NC(=O)[C@H](C)NC(=O)[C@H](CCC(N)=O)NC(=O)[C@H](CCC(=O)O)NC(=O)[C@H](CCC(=O)O)NC(=O)[C@H](CC(C)C)NC(=O)[C@H](Cc1ccc(O)cc1)NC(=O)[C@H](CO)NC(=O)[C@H](CO)NC(=O)[C@@H](NC(=O)[C@@H](N)CC(=O)O)C(C)C)C(C)C)[C@@H](C)CC)C(C)C)C(N)=O)C(=O)O` [compound 48] (H-DVSSYLEEQAVREFIAWLVKGGPSSGAPPPSK([AEEA-AEEA-γGlu-Palmitoyl])-NH2; N-terminus assumed) had a solubility in series [1] (setting [5]) of 9000 µg/mL (≈ 2220 µM). Also, in series [3] (setting [7]), the IC50 is 9 nM.

`CCCCCCCCCCCCCCCC(=O)N[C@@H](CCC(=O)NCCOCCOCC(=O)NCCCC[C@H](NC(=O)[C@H](CO)NC(=O)[C@@H]1CCCN1C(=O)[C@@H]1CCCN1C(=O)[C@@H]1CCCN1C(=O)[C@H](C)NC(=O)CNC(=O)[C@H](CO)NC(=O)[C@H](CO)NC(=O)[C@@H]1CCCN1C(=O)CNC(=O)CNC(=O)C(C)(C)NC(=O)[C@H](CCCNC(=N)N)NC(=O)[C@H](CC(C)C)NC(=O)[C@H](Cc1c[nH]c2ccccc12)NC(=O)[C@H](CCC(=O)O)NC(=O)[C@@H](NC(=O)[C@H](Cc1ccccc1)NC(=O)[C@H](CCC(=O)O)NC(=O)[C@H](CCCNC(=N)N)NC(=O)[C@@H](NC(=O)[C@H](C)NC(=O)[C@H](CCC(N)=O)NC(=O)[C@H](CCC(=O)O)NC(=O)[C@H](CCC(=O)O)NC(=O)[C@H](CC(C)C)NC(=O)[C@H](Cc1ccc(O)cc1)NC(=O)[C@H](CO)NC(=O)[C@H](CO)NC(=O)[C@@H](NC(=O)[C@@H](N)CC(=O)O)C(C)C)C(C)C)[C@@H](C)CC)C(=O)O)C(=O)O` [compound 80] (H-DVSSYLEEQAVREFIEWLR[Aib]GGPSSGAPPPSK([AEEA-γGlu-Palmitoyl])-OH; N-terminus assumed): the solubility in series [1] (pH 7.7, Solubility 80 mM AmeBicarb pH7.7) was > 20000 µg/mL. In series [3] (Table 3, amino acid substitution variants of Jant4-K40, read-out: Bioactivity IC50), the IC50 is 106 nM.

As for `CCCCCCCCCCCCCCCC(=O)NCCCC[C@H](NC(=O)[C@H](CO)NC(=O)[C@@H]1CCCN1C(=O)[C@@H]1CCCN1C(=O)[C@@H]1CCCN1C(=O)[C@H](C)NC(=O)CNC(=O)[C@H](CO)NC(=O)[C@H](CO)NC(=O)[C@@H]1CCCN1C(=O)CNC(=O)CNC(=O)C(C)(C)NC(=O)[C@@H](NC(=O)[C@H](CCCCN)NC(=O)[C@H](Cc1c[nH]c2ccccc12)NC(=O)[C@H](C)NC(=O)[C@@H](NC(=O)[C@H](Cc1ccccc1)NC(=O)[C@H](CCC(=O)O)NC(=O)[C@H](CCCNC(=N)N)NC(=O)[C@@H](NC(=O)[C@H](C)NC(=O)[C@H](CCC(N)=O)NC(=O)[C@H](CCC(=O)O)NC(=O)[C@H](CCC(=O)O)NC(=O)[C@H](CC(C)C)NC(=O)[C@H](Cc1ccc(O)cc1)NC(=O)[C@H](CO)NC(=O)[C@H](CO)NC(=O)[C@@H](NC(=O)[C@@H](N)CC(=O)O)C(C)C)C(C)C)[C@@H](C)CC)C(C)C)C(N)=O` [compound 82] (H-DVSSYLEEQAVREFIAWKV[Aib]GGPSSGAPPPSK(Palmitoyl)-NH2), the solubility in series [1] (setting [5]) worked out at 14200 µg/mL (≈ 3930 µM); in series [1] (setting [8]), 100 µg/mL (≈ 27.7 µM). Moreover, in series [3] (setting [6]), the IC50 was found to be 6 nM.

For the compound `CCCCCCCCCCCCCCCC(=O)NCCCC[C@H](NC(=O)[C@H](CO)NC(=O)[C@@H]1CCCN1C(=O)[C@@H]1CCCN1C(=O)[C@@H]1CCCN1C(=O)[C@H](C)NC(=O)CNC(=O)[C@H](CO)NC(=O)[C@H](CO)NC(=O)[C@@H]1CCCN1C(=O)CNC(=O)CNC(=O)[C@H](CCCCN)NC(=O)C(C)(C)NC(=O)[C@H](CC(C)C)NC(=O)[C@H](Cc1c[nH]c2ccccc12)NC(=O)[C@H](C)NC(=O)[C@@H](NC(=O)[C@H](Cc1ccccc1)NC(=O)[C@H](CCC(=O)O)NC(=O)[C@H](CCCNC(=N)N)NC(=O)[C@@H](NC(=O)[C@H](C)NC(=O)[C@H](CCC(N)=O)NC(=O)[C@H](CCC(=O)O)NC(=O)[C@H](CCC(=O)O)NC(=O)[C@H](CC(C)C)NC(=O)[C@H](Cc1ccc(O)cc1)NC(=O)[C@H](CO)NC(=O)[C@H](CO)NC(=O)[C@@H](NC(=O)[C@@H](N)CC(=O)O)C(C)C)C(C)C)[C@@H](C)CC)C(N)=O` [compound 81] (H-DVSSYLEEQAVREFIAWL[Aib]KGGPSSGAPPPSK(Palmitoyl)-NH2), the values for the solubility in series [1] (setting [5]) and in series [1] (setting [8]) were 19000 µg/mL (≈ 5240 µM) and 1600 µg/mL (≈ 441 µM), respectively. In addition, the IC50 in series [3] (setting [6]) was determined as 23 nM.

For “H-DVSSYLEEQAVREFIAWLVKGGPSSGAPPPSK-NH2 [compound 95]”, the solubility in series [1] (setting [5]) was 12700 µg/mL. In addition, the IC50 in series [3] (setting [7]) was 281 nM.
